# In US9023837B2, “Androgen induced oxidative stress inhibitors” (Colby Pharmaceutical Company, priority 2010, dated 2015):
# Several values for one entry are separate records, joined by “and”; a condition that tells them apart may be missing. Equal values may be shown once. Entries after “also recorded” stand apart in the source; their conditions may differ.
# Legend:
# [1] = test system: LNCaP cells; assay: growth inhibition of LNCaP cells; assay type: cell-based, human; set-up: concentration range of cell growth inhibition: unit not given here; conditions: presence and absence of R1881
# Protocol: (§1) Culture conditions for LNCaP androgen response studies included use of cells passage 40-90, hormone depleted media containing 4% charcoal-stripped FBS plus 1% non-stripped FBS (F1C4), and synthetic androgen R1881 (methyltrienolone; NEN, Boston, Mass.) at 1 nM for maximal induction of JunD and ROS as described before (17,19,20). For AR-JunD interaction studies in AR-transfected Hep3B cells, R1881 was used at 2 nM in F1C4 medium to maximally induce the AR.
# (§2) Graded concentrations of each of the 8-10 designed peptides identified herein are further tested for their ability to inhibit growth of androgen-dependent LNCaP and LAPC-4 cells using a DNA fluorescence assay and androgen-induced ROS using DCFH dye oxidation assay.
# [2] = test system: LNCaP cells; assay: DCF dye oxidation assay, ROS in LNCaP cells; assay type: cell-based, human
# From the text: Described herein are tests for the effect of these three compounds on the androgen-induced ROS production in androgen-dependent LNCaP cells using the DCF dye oxidation assay (see the complete proposal). All data were normalized to the DCF dye fluorescence of control untreated LNCaP cells and expressed as percent of control.
# as §1, §2
# [3] = target: T1, Androgen Receptor Ligand Binding Domain (AR-LBD) (Rattus norvegicus, UniProt P15207); assay: fluorescence polarization assay for AR-LBD binding; conditions: bicalutamide positive control
# T1 sequence (P15207 651-882 limits assumed): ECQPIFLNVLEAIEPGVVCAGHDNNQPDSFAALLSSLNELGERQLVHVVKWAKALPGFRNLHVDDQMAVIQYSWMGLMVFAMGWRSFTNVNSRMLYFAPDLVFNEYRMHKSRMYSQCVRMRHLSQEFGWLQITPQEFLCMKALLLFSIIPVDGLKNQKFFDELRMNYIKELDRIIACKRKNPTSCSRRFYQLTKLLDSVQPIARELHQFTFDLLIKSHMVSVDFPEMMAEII
# From the text: Binding of bicalutamide with AR-LBD was used as a positive control.
# Bicalutamide is used as a positive control.
# [4] = test system: human CaP cells; assay: androgen-induced ROS production in human CaP cells; assay type: cell-based; conditions: pretreatment
# From the text: (§3) Described herein are molecules, such as for example, N,N′-butadienyl-butanediamine inhibitor of APAO or one of its pro-drugs or analogs, as shown in the figures disclosed herein in this application. […] SSAT promoter sequence, however, contains no AR-binding element (ARE).
# [5] = test system: TRansgenic Adenocarcinoma in Mouse Prostate (TRAMP) animals; assay: TRAMP mouse model of prostate cancer; assay type: in vivo
# From the text: as §3
# [6] = test system: SSAT mRNA; assay: SSAT mRNA by qRT-PCR in LNCaP cells; assay type: cell-based, human
# Protocol: Quantitative RT-PCR analysis of SSAT mRNA levels are performed.
# The effect of AR activation by androgen on transcriptional activity of full length SSAT promoter and the necessity of JunD for such effect was studied in LNCaP cells stably transfected with either junD silenced (siJunD) or control vector that were then transiently transfected with a full length SSAT promoter-firefly luciferase reporter vector (FLSSAT-luc) followed by androgen treatment (FIGS. 4A,B). Androgen treatment (1 nM R1881) caused a significant>16-fold increase in SSAT promoter activity in vector control LNCaP cells (Control) compared to corresponding untreated cells (FIG. 4A, P=0.03). […] There is an androgen-induced increase in SSAT mRNA (˜10-fold) in siJunD cells, but this increase is much less than that observed in vector control cells (˜25-fold).
# [7] = target: AR-JunD immunocomplex (Homo sapiens, UniProt P10275, T878A); conditions: IP:JunD/WB:AR, 1 nM R1881, 72 h, normalized to β-actin
# Sequence of AR-JunD immunocomplex (P10275 whole entry T878A): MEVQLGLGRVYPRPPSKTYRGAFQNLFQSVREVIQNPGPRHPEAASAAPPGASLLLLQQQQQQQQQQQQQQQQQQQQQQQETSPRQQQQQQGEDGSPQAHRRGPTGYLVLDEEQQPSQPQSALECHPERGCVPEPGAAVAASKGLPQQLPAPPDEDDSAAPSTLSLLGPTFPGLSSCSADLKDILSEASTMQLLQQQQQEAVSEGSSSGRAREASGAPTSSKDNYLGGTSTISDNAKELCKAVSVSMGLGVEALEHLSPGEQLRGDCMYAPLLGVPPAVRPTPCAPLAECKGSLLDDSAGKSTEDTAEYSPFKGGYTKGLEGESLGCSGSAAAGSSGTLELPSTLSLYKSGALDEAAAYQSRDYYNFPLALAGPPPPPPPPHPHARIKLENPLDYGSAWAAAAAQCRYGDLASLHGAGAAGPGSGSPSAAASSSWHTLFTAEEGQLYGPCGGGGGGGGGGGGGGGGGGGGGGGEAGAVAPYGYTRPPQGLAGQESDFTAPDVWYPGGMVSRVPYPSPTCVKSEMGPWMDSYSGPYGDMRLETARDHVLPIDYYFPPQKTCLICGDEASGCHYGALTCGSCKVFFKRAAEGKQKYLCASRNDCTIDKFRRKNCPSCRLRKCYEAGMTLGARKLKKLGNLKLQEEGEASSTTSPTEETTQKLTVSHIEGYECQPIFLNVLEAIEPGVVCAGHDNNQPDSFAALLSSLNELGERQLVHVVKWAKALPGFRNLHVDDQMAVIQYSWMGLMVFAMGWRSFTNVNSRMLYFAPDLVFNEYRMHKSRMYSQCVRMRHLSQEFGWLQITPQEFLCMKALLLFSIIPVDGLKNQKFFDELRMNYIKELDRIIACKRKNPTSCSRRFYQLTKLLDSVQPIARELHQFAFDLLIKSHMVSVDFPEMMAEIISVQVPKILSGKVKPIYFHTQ
# Sequence of AR-JunD immunocomplex (P17535 whole entry partner): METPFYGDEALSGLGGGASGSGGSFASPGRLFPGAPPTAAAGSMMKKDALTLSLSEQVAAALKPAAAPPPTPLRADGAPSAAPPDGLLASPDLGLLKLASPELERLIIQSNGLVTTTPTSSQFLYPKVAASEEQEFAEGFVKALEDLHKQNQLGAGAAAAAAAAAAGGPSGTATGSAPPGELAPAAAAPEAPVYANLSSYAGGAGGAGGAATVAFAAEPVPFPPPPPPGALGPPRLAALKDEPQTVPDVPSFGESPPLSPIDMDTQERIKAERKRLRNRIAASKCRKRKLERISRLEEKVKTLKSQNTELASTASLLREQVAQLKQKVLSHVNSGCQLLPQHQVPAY
# Protocol: For whole cell lysates, LNCaP cells were lysed using modified RIPA buffer containing complete protease inhibitors (Roche Applied Sciences, Indianapolis, Ind.). Nuclear and cytoplasmic fractions were prepared and checked for purity using NE-PER Nuclear and Cytoplasmic extraction reagents (Thermo Scientific, Pierce Biotechnology, Rockford, Ill.) following manufacturer-supplied protocols. For immunoprecipitation, lysates were pre-cleared by incubation with 50% Protein A-agarose slurry (Pierce, Rockford, Ill.). Six g of AR antibody and 500 μl pre-cleared lysate (500 μg total protein) were mixed and rocked overnight at 4° C. The immunocomplex was captured with 100 μl of 50% protein A-agarose slurry, then analyzed by western blotting using JunD antibody. The same immunoprecipitation procedure was repeated for capturing the immunocomplex using JunD antibody and western blotting using AR antibody. Proper controls with IgG and protein A-agarose were run in parallel.
# To specifically investigate the effect of androgen, LNCaP cell lysates were prepared after incubation with 1 nM R1881 for 72 h and analyzed for co-immunoprecipitation of AR and JunD.
# [8] = target: JunD-AR complex (Homo sapiens, UniProt P10275); conditions: Hep3B, 2 nM R1881, 48 h
# Sequence of JunD-AR complex (P10275 whole entry): as the sequence (P10275 whole entry T878A) above, with A878T counted along it
# Sequence of JunD-AR complex (P17535 whole entry partner): as the sequence (P17535 whole entry partner) above
# Protocol: The two vectors were co-transfected into Hep3B liver carcinoma cells with no AR background.
# 5×10^5 Hep3B cells were seeded, then one day later co-transfected with 3 g each of Gluc1-AR and JunD-Gluc2 constructs, or transfected with Gluc1-AR or JunD-Gluc2 alone as negative controls using Lipofectamine 2000 reagent (Invitrogen), following the manufacturer-supplied protocol. Two to three hours after transfection, cells were washed and refed DMEM without serum and treated with 2 nM R1881 for 48 h prior to collecting cell lysates. Corresponding untreated cells were used as negative controls.
# Gaussia luciferase activity was measured in 25 μl of Hep3B cell lysates from R1881-treated or untreated control cells using a Gaussia luciferase assay kit from New England Biolabs (Ipswich, Mass.), following the manufacturer-supplied protocol.
# [9] = test system: SSAT promoter; assay: SSAT promoter luciferase reporter in LNCaP cells; assay type: cell-based, human; conditions: 1 nM R1881, 72 h
# Protocol: The full length (FL) SSAT promoter sequence, kindly provided by Dr. Robert Casero (Johns Hopkins University, Baltimore, Md.), was amplified and cloned into pGL4-basic vector (Promega) with a firefly luciferase reporter gene. This vector, pGL4-SSAT-luc, was transiently transfected into our published (20) JunD-silenced (siJunD) and vector control LNCaP cell lines. Briefly, 5×10^5 siJunD or vector control LNCaP cells were seeded, then transfected one day later with […] pGL4-SSAT-luc DNA construct using Lipofectamine2000 (Invitrogen). After transfection, cells were treated with 1 nM R1881 or left untreated for 72 h, then lysed. Luciferase activity was measured in cell lysates by a luciferase assay system kit (Promega) following the manufacturer-supplied protocol.
# The effect of AR activation by androgen on transcriptional activity of full length SSAT promoter and the necessity of JunD for such effect was studied in LNCaP cells stably transfected with either junD silenced (siJunD) or control vector that were then transiently transfected with a full length SSAT promoter-firefly luciferase reporter vector (FLSSAT-luc) followed by androgen treatment (FIGS. 4A,B). Androgen treatment (1 nM R1881) caused a significant>16-fold increase in SSAT promoter activity in vector control LNCaP cells (Control) compared to corresponding untreated cells (FIG. 4A, P=0.03). […]
smiles,measurement,setting,value
NN(CC(=O)O)CC(=O)O,concentration of growth inhibition,[1],sub-micromolar
same,reduction of ROS levels in cells not treated with R1881,[2]; LNCaP without R1881,weak activity in reducing ROS levels
same,AR-LBD binding / anti-androgenic properties,[3],no AR-LBD binding property; also recorded: no anti-androgenic properties
"O=C(O)CN(CC(=O)O)N1C(=O)c2ccccc2C1=O [2,2′-(1,3-dioxoisoindolin-2-ylazanediyl)diacetic acid]",concentration of growth inhibition,[1],sub-micromolar
same,AR-LBD binding / anti-androgenic properties,[3],no AR-LBD binding property; also recorded: no anti-androgenic properties
"C=C=CCNCCCCNCC=C=C [N,N′-butadienyl-butanediamine]",androgen-induced ROS production,[4],completely blocks
same,CaP progression,[5],significantly prevents
same,oxidative stress in the prostate,[5],markedly reduces
"C[C@]1(O)CC[C@H]2[C@@H]3CCC4=CC(=O)CCC4=C3C=C[C@@]21C [R1881, methyltrienolone]",increase in SSAT mRNA (treated/untreated),[6]; JunD silenced (siJunD) LNCaP cells,~10 fold
same,increase in SSAT mRNA (treated/untreated),[6]; vector control LNCaP cells,~25 fold and > 25 fold
same,increase of AR-JunD immunocomplex in nuclear fraction,[7],approximately 3 fold
same,increase in reconstituted Gaussia luciferase activity versus untreated cells,[8],~10 fold and > 5 fold
same,increase in SSAT promoter activity,[9]; siJunD LNCaP,small increase
same,increase in SSAT promoter activity,[9]; vector control LNCaP,> 16 fold
"COC(=O)CN(N)CC(=O)OC [dimethyl 2,2′-(hydrazine-1,1-diyl)diacetate]",concentration range of cell growth inhibition,[1],1-10
same,melting point,,166 °C
same,effect on ROS levels under any condition,[2]; LNCaP with or without R1881,no effect on the ROS levels
same,AR-LBD binding / anti-androgenic properties,[3],interaction with the AR-LBD that is comparable with that of bicalutamide
